Assay results taken from patent US9738634B2, “Heterocyclic amide compound and herbicide” (SYNGENTA PARTICIPATIONS AG, priority 2013, dated 2017).

Columns and labels:
Type in all cases: in vivo
[1] = test system: catchweed; assay: Test Example 3: weedkilling efficacy through soil treatment; O: catchweed; conditions: soil treatment
Summary of the method: (§1)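 Crop and weed responses were judged three weeks after a uniform surface spray of the water-diluted emulsion at the given g/ha rate. Seeds sat beneath about 1.5 cm of sterilized diluvial soil, and boxes stood in a greenhouse at 25 to 30° C.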

[2] = test system: crabgrass; assay: Test Example 3: weedkilling efficacy through soil treatment; D: crabgrass; conditions: soil treatment
Summary of the method: as §1

[3] = test system: fig-leafed goosefoot; assay: Test Example 3: weedkilling efficacy through soil treatment; M: fig-leafed goosefoot; conditions: soil treatment
Summary of the method: as §1

[4] = test system: barnyard grass; assay: Test Example 1: weedkilling efficacy, preemergent weed treatment in the submerged state; A: barnyard grass; conditions: treatment dosage 320 g/ha
Summary of the method: (§2)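 Pots of alluvial soil were flooded to a 4 cm depth. Mixed weed seeds were sown and 2.5 leaf-stage rice seedlings transplanted. On sowing day, water-diluted emulsion was applied to the water surface (dose in g/ha). After 3 weeks at 25–30 °C, effects were rated.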

[5] = test system: bulrush; assay: Test Example 1: weedkilling efficacy, preemergent weed treatment in the submerged state; B: bulrush; conditions: treatment dosage 320 g/ha
Summary of the method: as §2

[6] = test system: green foxtail; assay: Test Example 3: weedkilling efficacy through soil treatment; E: green foxtail; conditions: soil treatment
Summary of the method: as §1

[7] = test system: redroot pigweed; assay: Test Example 3: weedkilling efficacy through soil treatment; L: redroot pigweed; conditions: soil treatment
Summary of the method: as §1

[8] = test system: oval-leafed pondweed; assay: Test Example 1: weedkilling efficacy, preemergent weed treatment in the submerged state; C: oval-leafed pondweed; conditions: treatment dosage 320 g/ha
Summary of the method: as §2

[9] = test system: Italian ryegrass; assay: Test Example 3: weedkilling efficacy through soil treatment; I: Italian ryegrass; conditions: soil treatment
Summary of the method: as §1

[10] = test system: corn; assay: Test Example 3: soil treatment, effect on crop; c: corn; conditions: soil treatment
Summary of the method: as §1

[11] = test system: bulrush; assay: Test Example 2: weedkilling efficacy, growth period weed treatment in the submerged state; B: bulrush; conditions: treatment dosage 320 g/ha
Summary of the method: (§3)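 Weeds treated at the 1-2 leaf stage by application of diluted emulsion onto floodwater (4 cm depth, alluvial soil) at specified g/ha. Grown in greenhouse at 25 to 30° C; herbicidal effect rated three weeks after treatment.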

[12] = test system: wild oat; assay: Test Example 3: weedkilling efficacy through soil treatment; G: wild oat; conditions: soil treatment
Summary of the method: as §1

[13] = test system: Indian mallow; assay: Test Example 3: weedkilling efficacy through soil treatment; K: Indian mallow; conditions: soil treatment
Summary of the method: as §1

[14] = test system: directly sown rice; assay: Test Example 3: soil treatment, effect on crop; b: directly sown rice; conditions: soil treatment
Summary of the method: as §1

[15] = test system: chickweed; assay: Test Example 3: weedkilling efficacy through soil treatment; N: chickweed; conditions: soil treatment
Summary of the method: as §1

[16] = test system: birds-eye speedwell; assay: Test Example 3: weedkilling efficacy through soil treatment; p: birds-eye speedwell; conditions: soil treatment
Summary of the method: as §1

[17] = test system: soybean; assay: Test Example 3: soil treatment, effect on crop; d: soybean; conditions: soil treatment
Summary of the method: as §1

[18] = test system: beet; assay: Test Example 3: soil treatment, effect on crop; f: beet; conditions: soil treatment
Summary of the method: as §1

[19] = test system: common wind-grass; assay: Test Example 3: weedkilling efficacy through soil treatment; J: common wind-grass; conditions: soil treatment
Summary of the method: as §1

[20] = test system: transplanted rice; assay: Test Example 1: preemergent weed treatment in the submerged state, effect on crop; a: transplanted rice; conditions: treatment dosage 320 g/ha
Summary of the method: as §2

[21] = test system: wheat; assay: Test Example 3: soil treatment, effect on crop; e: wheat; conditions: soil treatment
Summary of the method: as §1

[22] = test system: barnyard grass; assay: Test Example 2: weedkilling efficacy, growth period weed treatment in the submerged state; A: barnyard grass; conditions: treatment dosage 320 g/ha
Summary of the method: as §3

[23] = test system: oval-leafed pondweed; assay: Test Example 2: weedkilling efficacy, growth period weed treatment in the submerged state; C: oval-leafed pondweed; conditions: treatment dosage 320 g/ha
Summary of the method: as §3

[24] = test system: rapeseed; assay: Test Example 3: soil treatment, effect on crop; g: rapeseed; conditions: soil treatment
Summary of the method: as §1

[25] = test system: black-grass; assay: Test Example 3: weedkilling efficacy through soil treatment; H: black-grass; conditions: soil treatment
Summary of the method: as §1

[26] = test system: barnyard grass; assay: Test Example 3: weedkilling efficacy through soil treatment; F: barnyard grass; conditions: soil treatment
Summary of the method: as §1

For CC(C)(C(=O)Nc1ccn(C(F)F)n1)N1COCN(c2ccccc2)C1=O [A-1-04], the “O: catchweed, weedkilling efficacy grade” value ([1]; treatment dosage 320 g/ha) was 2 (weed kill ratio 20% or more, less than 40%), the “D: crabgrass, weedkilling efficacy grade” value ([2]; treatment dosage 320 g/ha) was 3 (weed kill ratio 40% or more, less than 70%) and the “M: fig-leafed goosefoot, weedkilling efficacy grade” value (“M: fig-leafed goosefoot” for short) ([3]; treatment dosage 320 g/ha) was 3 (weed kill ratio 40% or more, less than 70%). The “A: barnyard grass, weed kill grade” value [4] was 5 (weed kill ratio 90% or more, (practically complete withering)), the “B: bulrush, weed kill grade” value [5] was 5 (weed kill ratio 90% or more, (practically complete withering)) and the “E: green foxtail, weedkilling efficacy grade” value (“E: green foxtail” below) ([6]; treatment dosage 320 g/ha) was 3 (weed kill ratio 40% or more, less than 70%). The “L: redroot pigweed, weedkilling efficacy grade” value (“L: redroot pigweed” below) ([7]; treatment dosage 320 g/ha) was 0 (weed kill ratio 5% or less (practically no effect)), the “C: oval-leafed pondweed, weed kill grade” value [8] was 4 (weed kill ratio 70% or more, less than 90%) and the “I: Italian ryegrass, weedkilling efficacy grade” value (from here on “I: Italian ryegrass”) ([9]; treatment dosage 320 g/ha) was 5 (weed kill ratio 90% or more, (practically complete withering)). For the same compound, the “c: corn, effect on crop grade” value ([10]; treatment dosage 320 g/ha) was 0 (weed kill ratio 5% or less (practically no effect)), the “B (bulrush) weedkilling efficacy grade” value [11] was 4 (weed kill ratio 70% or more, less than 90%) and the “G: wild oat, weedkilling efficacy grade” value ([12]; treatment dosage 320 g/ha) was 2 (weed kill ratio 20% or more, less than 40%). For the same compound, the “K: Indian mallow, weedkilling efficacy grade” value (“K: Indian mallow” below) ([13]; treatment dosage 320 g/ha) was 0 (weed kill ratio 5% or less (practically no effect)), the “b: directly sown rice, effect on crop grade” value (“b: directly sown rice, effect” below) ([14]; treatment dosage 320 g/ha) was 0 (weed kill ratio 5% or less (practically no effect)) and the “N: chickweed, weedkilling efficacy grade” value ([15]; treatment dosage 320 g/ha) was 4 (weed kill ratio 70% or more, less than 90%). The “P: birds-eye speedwell, weedkilling efficacy grade” value (“P: birds-eye speedwell” for short) ([16]; treatment dosage 320 g/ha) was 3 (weed kill ratio 40% or more, less than 70%), the “d: soybean, effect on crop grade” value ([17]; treatment dosage 320 g/ha) was 2 (weed kill ratio 20% or more, less than 40%) and the “f: beet, effect on crop grade” value ([18]; treatment dosage 320 g/ha) was 3 (weed kill ratio 40% or more, less than 70%). The “J: common wind-grass, weedkilling efficacy grade” value (shortened to “J: common wind-grass”) ([19]; treatment dosage 320 g/ha) was 5 (weed kill ratio 90% or more, (practically complete withering)), the “a: transplanted rice, effect on crop grade” value [20] was 0 (weed kill ratio 5% or less (practically no effect)) and the “e: wheat, effect on crop grade” value ([21]; treatment dosage 320 g/ha) was 0 (weed kill ratio 5% or less (practically no effect)). For the same compound, the “A (barnyard grass) weedkilling efficacy grade” value [22] was 3 (weed kill ratio 40% or more, less than 70%), the “C (oval-leafed pondweed) weedkilling efficacy grade” value [23] was 4 (weed kill ratio 70% or more, less than 90%) and the “g: rapeseed, effect on crop grade” value ([24]; treatment dosage 320 g/ha) was 4 (weed kill ratio 70% or more, less than 90%). The “H: black-grass, weedkilling efficacy grade” value (from here on “H: black-grass”) ([25]; treatment dosage 320 g/ha) was 4 (weed kill ratio 70% or more, less than 90%) and the “F: barnyard grass, weedkilling efficacy grade” value (shortened to “F: barnyard grass”) ([26]; treatment dosage 320 g/ha) was 2 (weed kill ratio 20% or more, less than 40%).

In the case of Cc1nnc(NC(=O)C(C)(C)N2COCN(c3ccccc3)C2=O)s1 [A-1-13], the “O: catchweed, weedkilling efficacy grade” value ([1]; treatment dosage 320 g/ha) is reported as 0 (weed kill ratio 5% or less (practically no effect)), the “D: crabgrass, weedkilling efficacy grade” value ([2]; treatment dosage 320 g/ha) is reported as 3 (weed kill ratio 40% or more, less than 70%) and the “M: fig-leafed goosefoot” value ([3]; treatment dosage 320 g/ha) is reported as 3 (weed kill ratio 40% or more, less than 70%). The “A: barnyard grass, weed kill grade” value [4] was 5 (weed kill ratio 90% or more, (practically complete withering)), the “B: bulrush, weed kill grade” value [5] was 5 (weed kill ratio 90% or more, (practically complete withering)) and the “E: green foxtail” value ([6]; treatment dosage 320 g/ha) was 3 (weed kill ratio 40% or more, less than 70%). For the same compound, the “L: redroot pigweed” value ([7]; treatment dosage 320 g/ha) was 0 (weed kill ratio 5% or less (practically no effect)), the “C: oval-leafed pondweed, weed kill grade” value [8] was 5 (weed kill ratio 90% or more, (practically complete withering)) and the “I: Italian ryegrass” value ([9]; treatment dosage 320 g/ha) was 5 (weed kill ratio 90% or more, (practically complete withering)). The “c: corn, effect on crop grade” value ([10]; treatment dosage 320 g/ha) was 0 (weed kill ratio 5% or less (practically no effect)), the “B (bulrush) weedkilling efficacy grade” value [11] was 5 (weed kill ratio 90% or more, (practically complete withering)) and the “G: wild oat, weedkilling efficacy grade” value ([12]; treatment dosage 320 g/ha) was 3 (weed kill ratio 40% or more, less than 70%). For the same compound, the “K: Indian mallow” value ([13]; treatment dosage 320 g/ha) was 0 (weed kill ratio 5% or less (practically no effect)), the “b: directly sown rice, effect” value ([14]; treatment dosage 320 g/ha) was 3 (weed kill ratio 40% or more, less than 70%) and the “N: chickweed, weedkilling efficacy grade” value ([15]; treatment dosage 320 g/ha) was 3 (weed kill ratio 40% or more, less than 70%). The “P: birds-eye speedwell” value ([16]; treatment dosage 320 g/ha) was 4 (weed kill ratio 70% or more, less than 90%), the “d: soybean, effect on crop grade” value ([17]; treatment dosage 320 g/ha) was 0 (weed kill ratio 5% or less (practically no effect)) and the “f: beet, effect on crop grade” value ([18]; treatment dosage 320 g/ha) was 1 (weed kill ratio 5% or more, less than 20%). For the same compound, the “J: common wind-grass” value ([19]; treatment dosage 320 g/ha) was 5 (weed kill ratio 90% or more, (practically complete withering)), the “a: transplanted rice, effect on crop grade” value [20] was 3 (weed kill ratio 40% or more, less than 70%) and the “e: wheat, effect on crop grade” value ([21]; treatment dosage 320 g/ha) was 1 (weed kill ratio 5% or more, less than 20%). For the same compound, the “A (barnyard grass) weedkilling efficacy grade” value [22] was 3 (weed kill ratio 40% or more, less than 70%), the “C (oval-leafed pondweed) weedkilling efficacy grade” value [23] was 3 (weed kill ratio 40% or more, less than 70%) and the “g: rapeseed, effect on crop grade” value ([24]; treatment dosage 320 g/ha) was 4 (weed kill ratio 70% or more, less than 90%). The “H: black-grass” value ([25]; treatment dosage 320 g/ha) was 5 (weed kill ratio 90% or more, (practically complete withering)) and the “F: barnyard grass” value ([26]; treatment dosage 320 g/ha) was 3 (weed kill ratio 40% or more, less than 70%).

For CC(C)(C(=O)Nc1cc(Cl)cc(C2CC2)n1)N1COCN(c2ccccc2)C1=O [A-2-29], the “O: catchweed, weedkilling efficacy grade” value ([1]; treatment dosage 230 g/ha) was 3 (weed kill ratio 40% or more, less than 70%), the “D: crabgrass, weedkilling efficacy grade” value ([2]; treatment dosage 230 g/ha) was 5 (weed kill ratio 90% or more, (practically complete withering)) and the “M: fig-leafed goosefoot” value ([3]; treatment dosage 230 g/ha) was 3 (weed kill ratio 40% or more, less than 70%). For the same compound, the “E: green foxtail” value ([6]; treatment dosage 230 g/ha) was 5 (weed kill ratio 90% or more, (practically complete withering)), the “L: redroot pigweed” value ([7]; treatment dosage 230 g/ha) was 2 (weed kill ratio 20% or more, less than 40%) and the “I: Italian ryegrass” value ([9]; treatment dosage 230 g/ha) was 5 (weed kill ratio 90% or more, (practically complete withering)). For the same compound, the “c: corn, effect on crop grade” value ([10]; treatment dosage 230 g/ha) was 1 (weed kill ratio 5% or more, less than 20%), the “G: wild oat, weedkilling efficacy grade” value ([12]; treatment dosage 230 g/ha) was 3 (weed kill ratio 40% or more, less than 70%) and the “K: Indian mallow” value ([13]; treatment dosage 230 g/ha) was 3 (weed kill ratio 40% or more, less than 70%). The “b: directly sown rice, effect” value ([14]; treatment dosage 230 g/ha) was 1 (weed kill ratio 5% or more, less than 20%), the “N: chickweed, weedkilling efficacy grade” value ([15]; treatment dosage 230 g/ha) was 4 (weed kill ratio 70% or more, less than 90%) and the “P: birds-eye speedwell” value ([16]; treatment dosage 230 g/ha) was 5 (weed kill ratio 90% or more, (practically complete withering)). The “d: soybean, effect on crop grade” value ([17]; treatment dosage 230 g/ha) was 0 (weed kill ratio 5% or less (practically no effect)), the “f: beet, effect on crop grade” value ([18]; treatment dosage 230 g/ha) was 3 (weed kill ratio 40% or more, less than 70%) and the “J: common wind-grass” value ([19]; treatment dosage 230 g/ha) was 5 (weed kill ratio 90% or more, (practically complete withering)). For the same compound, the “e: wheat, effect on crop grade” value ([21]; treatment dosage 230 g/ha) was 0 (weed kill ratio 5% or less (practically no effect)), the “g: rapeseed, effect on crop grade” value ([24]; treatment dosage 230 g/ha) was 4 (weed kill ratio 70% or more, less than 90%) and the “H: black-grass” value ([25]; treatment dosage 230 g/ha) was 5 (weed kill ratio 90% or more, (practically complete withering)). For the same compound, the “F: barnyard grass” value ([26]; treatment dosage 230 g/ha) was 5 (weed kill ratio 90% or more, (practically complete withering)).
